Measured values from ChEMBL document CHEMBL3526001, “Attenuation of intestinal absorption by major efflux transporters: quantitative tools and strategies using a Caco-2 model” (Drug Metab Dispos, 2011).
Numbered stars: 1 amine (or outer) side, 2 acyl side, 3 side chain; on linkers, the order of the positions; unused ones are H or OH. Bridge positions count the residues as written; N and C are the ends. Square brackets hold non-standard residues; d marks the D form. Peptide text beside a SMILES is read from it. I, II: the chains in the order shown. Actinocin(9to1) = Cc1c2oc3c(C)ccc(C(=O)[*:1])c3nc-2c(C(=O)[*:2])c(N)c1=O; NMeV = CN[C@H](C(=O)O)C(C)C; Sar = CNCC(=O)O

Tests used:
clinical = details: human, in vivo
Description: Fraction absorbed in human

in vitro [1] = details: human, Caco-2
in vitro [2] = details: human, Caco-2; remark: listed apart in the source
in vitro [3] = details: human, Caco-2; remark: listed apart in the source
P-gp = assay: in vitro; details: human
MDCK [4] = assay: Efflux ratio of permeability from basolateral to apical over apical to basolateral side of MDCK cells expressing BCRP; type: ADME, cell-based, Canis lupus familiaris; details: dog
[5] = human, caco-2, 2 h, 10 µM
[6] = human, caco-2, 2 h, 10 µM; remark: listed apart in the source
Intestine = assay: Ratio of intestine AUC in po dosed mdr1 knock out mouse to intestine AUC in po dosed wild type mouse; type: ADME, organism-based; details: in vivo
[7] = biological target: ATP-binding cassette sub-family C member 2 (Homo sapiens, UniProt Q92887); assay: Fold activity change at MRP2 ATPase (unknown origin) relative to control; type: ADME
ATP-binding cassette sub-family C member 2, sequence (Q92887 whole entry): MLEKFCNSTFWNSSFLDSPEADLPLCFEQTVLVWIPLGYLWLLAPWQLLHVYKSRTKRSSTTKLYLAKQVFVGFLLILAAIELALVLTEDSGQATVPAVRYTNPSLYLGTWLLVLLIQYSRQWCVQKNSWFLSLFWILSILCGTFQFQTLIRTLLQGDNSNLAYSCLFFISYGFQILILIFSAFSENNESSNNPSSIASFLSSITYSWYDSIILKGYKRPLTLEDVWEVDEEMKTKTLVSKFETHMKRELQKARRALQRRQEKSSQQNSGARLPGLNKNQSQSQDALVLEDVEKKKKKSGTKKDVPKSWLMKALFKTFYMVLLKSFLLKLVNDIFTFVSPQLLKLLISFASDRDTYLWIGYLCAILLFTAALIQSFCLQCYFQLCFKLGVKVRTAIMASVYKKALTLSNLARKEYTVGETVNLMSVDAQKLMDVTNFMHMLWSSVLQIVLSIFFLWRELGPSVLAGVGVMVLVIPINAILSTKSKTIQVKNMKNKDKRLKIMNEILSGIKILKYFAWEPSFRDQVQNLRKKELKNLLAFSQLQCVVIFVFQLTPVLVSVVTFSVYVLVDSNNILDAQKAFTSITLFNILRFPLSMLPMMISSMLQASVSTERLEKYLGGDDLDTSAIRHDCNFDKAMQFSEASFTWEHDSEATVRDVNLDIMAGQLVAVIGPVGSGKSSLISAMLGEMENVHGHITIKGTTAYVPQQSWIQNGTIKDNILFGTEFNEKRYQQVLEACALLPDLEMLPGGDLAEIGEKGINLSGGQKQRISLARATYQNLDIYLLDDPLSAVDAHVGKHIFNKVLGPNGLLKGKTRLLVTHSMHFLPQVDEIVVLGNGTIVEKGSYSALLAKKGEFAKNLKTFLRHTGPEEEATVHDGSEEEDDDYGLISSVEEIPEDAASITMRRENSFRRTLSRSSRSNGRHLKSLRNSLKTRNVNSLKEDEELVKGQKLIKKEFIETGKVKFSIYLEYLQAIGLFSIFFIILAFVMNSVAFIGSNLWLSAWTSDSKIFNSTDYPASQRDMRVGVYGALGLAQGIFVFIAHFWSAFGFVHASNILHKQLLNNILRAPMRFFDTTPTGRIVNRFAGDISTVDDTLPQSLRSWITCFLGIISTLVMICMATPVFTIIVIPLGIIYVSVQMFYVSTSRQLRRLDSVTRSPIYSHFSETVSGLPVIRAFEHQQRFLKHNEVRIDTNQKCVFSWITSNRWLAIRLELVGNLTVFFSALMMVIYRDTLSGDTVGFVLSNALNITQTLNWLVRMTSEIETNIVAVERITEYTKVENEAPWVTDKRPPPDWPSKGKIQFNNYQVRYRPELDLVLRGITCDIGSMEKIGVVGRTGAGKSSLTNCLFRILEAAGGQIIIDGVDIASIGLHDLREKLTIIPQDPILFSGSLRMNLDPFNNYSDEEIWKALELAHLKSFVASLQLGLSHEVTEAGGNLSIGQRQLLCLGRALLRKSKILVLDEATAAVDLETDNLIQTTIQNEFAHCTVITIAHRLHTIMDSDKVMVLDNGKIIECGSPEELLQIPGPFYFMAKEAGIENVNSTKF

MDCK [8] = assay: Efflux ratio of permeability from basolateral to apical over apical to basolateral side of MDCK cells expressing MDR1; type: ADME, cell-based, Canis lupus familiaris; details: dog

SMILES	Fa (clinical)	Papp A→B at 2 h, 10 µM (in vitro [1])	Papp B→A at 2 h, 10 µM (in vitro [2])	efflux ratio at 2 h, 10 µM (in vitro [3])	efflux ratio at 2 h, 10 µM (P-gp; Caco-2, with LY335979 1 uM)	efflux ratio at 2 h, 10 µM (P-gp; Caco-2)	Ratio (MDCK [4])	Papp [5]	Papp [6]	Ratio AUC (Intestine)	fold change (FC) [7]	Ratio (MDCK [8])
Cc1c(O)cccc1C(=O)N[C@@H](CSc1ccccc1)[C@H](O)CN1C[C@H]2CCCC[C@H]2C[C@H]1C(=O)NC(C)(C)C	3%	0.7 ×10⁻⁶ cm/s	1.7 ×10⁻⁶ cm/s	2.5	0.7							
COC(=O)[C@H]1[C@H]2C[C@@H]3c4[nH]c5cc(OC)ccc5c4CCN3C[C@H]2C[C@@H](OC(=O)c2cc(OC)c(OC)c(OC)c2)[C@@H]1OC [RESERPINE]	50%	3.6 ×10⁻⁶ cm/s	2.3 ×10⁻⁶ cm/s	0.6		0.7						
CCn1cc(C(=O)O)c(=O)c2cc(F)c(N3CCNCC3)cc21 [NORFLOXACIN]	40%	1.9 ×10⁻⁶ cm/s	3.3 ×10⁻⁶ cm/s	1.7		1.7						
Cc1ccccc1N1C(=O)c2cc(S(N)(=O)=O)c(Cl)cc2NC1C (configuration not stated) [METOLAZONE]				3.3	2.1		5.1	1.8 ×10⁻⁶ cm/s	9.6 ×10⁻⁶ cm/s			
CN/C(=N/CCSCc1nc[nH]c1C)NC#N [CIMETIDINE]	60%	1.4 ×10⁻⁶ cm/s	4.8 ×10⁻⁶ cm/s	3.5		1.8				0.95		
O=C1C(CC[S+]([O-])c2ccccc2)C(=O)N(c2ccccc2)N1c1ccccc1 (configuration not stated) [SULFINPYRAZONE]	85%			3.3	9			1.2 ×10⁻⁶ cm/s	5.8 ×10⁻⁶ cm/s			
COc1cccc2c1C(=O)c1c(O)c3c(c(O)c1C2=O)C[C@@](O)(C(C)=O)C[C@@H]3O[C@H]1C[C@H](N)[C@H](O)[C@H](C)O1 [DAUNORUBICIN]	10%					0.4				3		
CC[C@]1(O)C[C@H]2CN(CCc3c([nH]c4ccccc34)[C@@](C(=O)OC)(c3cc4c(cc3OC)N(C=O)[C@H]3[C@@](O)(C(=O)OC)[C@H](OC(C)=O)[C@]5(CC)C=CCN6CC[C@]43[C@@H]65)C2)C1 [VINCRISTINE]	< 10%				8.6			0.4 ×10⁻⁶ cm/s	3.5 ×10⁻⁶ cm/s			
CC1=C(CC(=O)O)c2cc(F)ccc2/C1=C\c1ccc([S+](C)[O-])cc1 (configuration not stated)	90%			3.6	2.6			2 ×10⁻⁶ cm/s	13.5 ×10⁻⁶ cm/s			
Nc1cc(-c2ccncc2)c[nH]c1=O [INAMRINONE]				1.4	3.3			7.5 ×10⁻⁶ cm/s	16.6 ×10⁻⁶ cm/s			
CC(C)(C)NC(=O)[C@@H]1CN(Cc2cccnc2)CCN1C[C@@H](O)C[C@@H](Cc1ccccc1)C(=O)N[C@H]1c2ccccc2C[C@H]1O.O	63%	2.4 ×10⁻⁶ cm/s	22.8 ×10⁻⁶ cm/s	9.7		0.8						
CCC1=C[C@@H]2CN(C1)Cc1c([nH]c3ccccc13)[C@@](C(=O)OC)(c1cc3c(cc1OC)N(C)[C@H]1[C@@](O)(C(=O)OC)[C@H](OC(C)=O)[C@]4(CC)C=CCN5CC[C@]31[C@@H]54)C2 [VINORELBINE]	45%	1.4 ×10⁻⁶ cm/s	8.5 ×10⁻⁶ cm/s	5.9	1							
CN(Cc1cnc2nc(N)nc(N)c2n1)c1ccc(C(=O)N[C@@H](CCC(=O)O)C(=O)O)cc1 [METHOTREXATE]		1.2 ×10⁻⁶ cm/s	1.1 ×10⁻⁶ cm/s	0.9							-0.2	
COc1ccc([C@@H]2Sc3ccccc3N(CCN(C)C)C(=O)[C@@H]2OC(C)=O)cc1 [DILTIAZEM]		12 ×10⁻⁶ cm/s	8.3 ×10⁻⁶ cm/s	0.7	0.4							0.8
CC[C@@]1(O)C(=O)OCc2c1cc1n(c2=O)Cc2cc3c(CN(C)C)c(O)ccc3nc2-1 [TOPOTECAN]	30%			6.9	13.1		2.4	0.9 ×10⁻⁶ cm/s	7.1 ×10⁻⁶ cm/s			
CC[C@H]1OC(=O)[C@H](C)[C@@H](O[C@H]2C[C@@](C)(OC)[C@@H](O)[C@H](C)O2)[C@H](C)[C@@H](O[C@@H]2O[C@H](C)C[C@H](N(C)C)[C@H]2O)[C@](C)(OC)C[C@@H](C)C(=O)[C@H](C)[C@@H](O)[C@]1(C)O [CLARITHROMYCIN]	50%	3.5 ×10⁻⁶ cm/s	18 ×10⁻⁶ cm/s	5.1		0.8						
O=C(O)CN(CCN(CC(=O)O)Cc1ccccc1O)Cc1ccccc1O		0.02 ×10⁻⁶ cm/s	0.04 ×10⁻⁶ cm/s	2.1	2							

SMILES	Fa (clinical)	Papp A→B at 2 h, 10 µM (in vitro [1])	Papp B→A at 2 h, 10 µM (in vitro [2])	efflux ratio at 2 h, 10 µM (in vitro [3])	efflux ratio at 2 h, 10 µM (P-gp; Caco-2, with LY335979 1 uM)	efflux ratio at 2 h, 10 µM (P-gp; Caco-2)	Ratio (MDCK [4])	Papp [5]	Papp [6]	Ratio AUC (Intestine)	fold change (FC) [7]	Ratio (MDCK [8])
CC[C@H]1OC(=O)[C@H](C)[C@@H](O[C@H]2C[C@@](C)(OC)[C@@H](O)[C@H](C)O2)[C@H](C)[C@@H](O[C@@H]2O[C@H](C)C[C@H](N(C)C)[C@H]2O)[C@](C)(O)C[C@@H](C)C(=O)[C@H](C)[C@@H](O)[C@]1(C)O [ERYTHROMYCIN]	35%	0.3 ×10⁻⁶ cm/s	3 ×10⁻⁶ cm/s	7.1		0.5	8.5				1	
CC(C)n1c(/C=C/C(O)CC(O)CC(=O)O)c(-c2ccc(F)cc2)c2ccccc21 (configuration not stated) [FLUVASTATIN]	98%				12.3			1.5 ×10⁻⁶ cm/s	15.3 ×10⁻⁶ cm/s			4.9
CN1CCN(CCCN2c3ccccc3Sc3ccc(C(F)(F)F)cc32)CC1 [TRIFLUOPERAZINE]	16%	0.5 ×10⁻⁶ cm/s	1 ×10⁻⁶ cm/s	1.9		0.9						
C=CCN1CC[C@]23c4c5ccc(O)c4O[C@H]2C(=O)CC[C@@]3(O)[C@H]1C5 [NALOXONE]		21.5 ×10⁻⁶ cm/s	10.3 ×10⁻⁶ cm/s	0.5	0.5							0.7
C=CC[C@@H]1/C=C(\C)C[C@H](C)C[C@H](OC)[C@H]2O[C@@](O)(C(=O)C(=O)N3CCCC[C@H]3C(=O)O[C@H](/C(C)=C/[C@@H]3CC[C@@H](O)[C@H](OC)C3)[C@H](C)[C@@H](O)CC1=O)[C@H](C)C[C@@H]2OC [TACROLIMUS ANHYDROUS]	25%	1 ×10⁻⁶ cm/s	3.6 ×10⁻⁶ cm/s	3.5	0.7							
O=c1[nH]c2ccccc2n1CCCN1CCC(n2c(=O)[nH]c3cc(Cl)ccc32)CC1 [DOMPERIDONE]	93%	5.2 ×10⁻⁶ cm/s	15.4 ×10⁻⁶ cm/s								3	
CCCC(=O)Nc1ccc(OCC(O)CNC(C)C)c(C(C)=O)c1 (configuration not stated) [ACEBUTOLOL]	70%	1.1 ×10⁻⁶ cm/s	4.1 ×10⁻⁶ cm/s	3.6		1						
O=C1c2c(O)ccc(O)c2C(=O)c2c(NCCNCCO)ccc(NCCNCCO)c21 [MITOXANTRONE]	85%	26.3 ×10⁻⁶ cm/s	12.5 ×10⁻⁶ cm/s	0.5		0.6						
Cc1c2oc3c(C)ccc(C(=O)N[C@@H]4C(=O)N[C@H](C(C)C)C(=O)N5CCC[C@H]5C(=O)N(C)CC(=O)N(C)[C@@H](C(C)C)C(=O)O[C@@H]4C)c3nc-2c(C(=O)N[C@@H]2C(=O)N[C@H](C(C)C)C(=O)N3CCC[C@H]3C(=O)N(C)CC(=O)N(C)[C@@H](C(C)C)C(=O)O[C@@H]2C)c(N)c1=O [DACTINOMYCIN] (I: T[dV]P[Sar][NMeV] / II: T[dV]P[Sar][NMeV]; ester I:1-I:C, II:1-II:C; linker I:N-II:N via Actinocin(9to1))	5%			6.4	4			0.8 ×10⁻⁶ cm/s	4.5 ×10⁻⁶ cm/s			
CCCCC(=O)N(Cc1ccc(-c2ccccc2-c2nnn[nH]2)cc1)[C@H](C(=O)O)C(C)C	25%	0.4 ×10⁻⁶ cm/s	1.7 ×10⁻⁶ cm/s	4.1		2.9						
CC(C)(C)NC(=O)[C@@H]1C[C@@H]2CCCC[C@@H]2CN1C[C@@H](O)[C@H](Cc1ccccc1)NC(=O)[C@H](CC(N)=O)NC(=O)c1ccc2ccccc2n1	4%							0.4 ×10⁻⁶ cm/s	5.6 ×10⁻⁶ cm/s			
COc1cc2c(c(OC)c1OC)-c1ccc(OC)c(=O)cc1[C@@H](NC(C)=O)CC2 [COLCHICINE]	44%			4.3		0.8					-0.4	
COc1cc([C@@H]2c3cc4c(cc3[C@@H](O[C@@H]3O[C@@H]5CO[C@@H](c6cccs6)O[C@H]5[C@H](O)[C@H]3O)[C@H]3COC(=O)[C@H]23)OCO4)cc(OC)c1O [TENIPOSIDE]	0%	0.9 ×10⁻⁶ cm/s	8.8 ×10⁻⁶ cm/s	9.8	2.1							
O=C(O)c1cc(/N=N/c2ccc(S(=O)(=O)Nc3ccccn3)cc2)ccc1O [SULFASALAZINE]				16.9		32.2					9	
COC(=O)C1=C(C)NC(C)=C(C(=O)OCCN(C)Cc2ccccc2)C1c1cccc([N+](=O)[O-])c1 (configuration not stated) [NICARDIPINE]	100%	5 ×10⁻⁶ cm/s	2.6 ×10⁻⁶ cm/s	0.5		0.5						
O=C(CCCN1CCC(O)(c2ccc(Cl)cc2)CC1)c1ccc(F)cc1 [HALOPERIDOL]	60%	4.1 ×10⁻⁶ cm/s	1.8 ×10⁻⁶ cm/s	0.4	0.4							
